Test results as given in patent publication US8188059B2, “Compounds and methods for modulating expression of GCGR” (Isis Pharmaceuticals, Inc., priority 2006, dated 2012).
Strand notation (5' to 3'): a small letter for the sugar, then the base; units joined by * are phosphorothioate-linked, units joined directly phosphodiester-linked; [ ] holds rarer units or linkages, { } end groups; capitals alone tell only the bases. e = 2'-O-(2-methoxyethyl) (MOE); [5mC] = 5-methylcytosine; d = 2'-deoxy (DNA)

Legend:
[1] = system: SGLT2 mRNA; assay: SGLT2 mRNA levels in kidney of Balb/c mice, twenty 1-10-1 MOE gapmers at 350 nmol/kg, PPS 534 and PPS 553 (Example 18, Table 74); type: in vivo, mouse; conditions: 350 nmol/kg i.p. twice per week for two weeks
Procedure: Twenty 1-10-1 MOE gapmers that are complementary to human/monkey/mouse/rat SGLT2 were designed, synthesized and tested in vivo for suppression of SGLT2 mRNA levels in kidney. Data are averages from two experiments in which male 6-week old Balb/c mice were administered intraperitoneal injections of 350 nmol/kg of oligonucleotide, twice per week, over a period of two weeks (a total of four injections). Mice were sacrificed 48 hours following the last administration and evaluated for SGLT2 mRNA levels in kidney. SGLT2 mRNA levels were determined by quantitative real-time PCR analysis according to standard procedures, using two different PCR primer probe sets, primer probe set (PPS) 534 and PPS 553. SGLT2 mRNA levels were normalized to cyclophilin mRNA levels, which were also measured by quantitative real-time PCR.

[2] = system: PCSK9 mRNA; type: cell-based, human; conditions: Hep3B cells, 100 nM, relative to untreated control cells; for % Inhib (PCSK9 mRNA): 0 = no reduction observed
[3] = system: PCSK9 mRNA; assay: Dose-dependent inhibition of PCSK9 in Hep3B cells with EC50 (Example 19, Table 76); type: cell-based, human
Procedure: Short antisense compounds targeted to a PCSK9 nucleic acid were tested in a dose response experiment Hep3B cells. After the treatment period, RNA was isolated from the cells and PCSK9 mRNA levels were measured by quantitative real-time PCR, as described herein. PCSK9 mRNA levels were normalized to cyclophilin mRNA levels, as measured by real-time PCR using a cyclophilin-specific primer probe set. Results are presented as percent inhibition of PCSK9, relative to untreated control cells. […] As illustrated in the following table, PCSK9 mRNA levels were reduced in a dose-dependent manner.

[4] = system: GCGR mRNA; assay: GCGR mRNA levels in liver of C57/BL6 mice, single i.p. dose (Example 4, Tables 35-41); type: in vivo, mouse; conditions: liver, single i.p. dose, 48 hours
Procedure: (§1) Eight-week old male C57/BL6 mice (Jackson Laboratory, Bar Harbor, Me.) were administered a single dose of GCGR oligonucleotide by intraperitoneal injection at a concentration of […]. Each dose group consisted of four animals. Shown in Table 31 are the sequences, motifs and conjugates of the GCGR antisense compounds used in this study. Bolded residues indicate 2′-O-methoxyethyl (2′-MOE) moieties. All compounds comprise phosphorothioate internucleoside linkages throughout and each cytosine is replaced with 5-methylcytosine. ISIS 386626, ISIS 386627 and ISIS 386628 further comprise a C16 conjugate group attached to the 2′-O position of the sugar via a diamide linkage (2′-OCH2C(═O)N(H)(CH2)4N(H)C(═O)—(CH2)15CH3). GCGR antisense compounds target published GCGR sequences, including Genbank® Accession No. BC031885.1 (SEQ ID NO: 7).
(§2) Mice were sacrificed 48 hours following injection to determine serum transaminase levels (Table 32); liver, white adipose tissue (WAT), spleen and kidney weight (Table 33); cholesterol, triglyceride and glucose levels (Table 34); GCGR mRNA levels (Tables 35-41); and full-length and total oligonucleotide concentration in liver and kidney (Table 42). Endpoints were assessed using methods described herein and well known to those of ordinary skill in the art. Data is included from a pre-treatment bleed (Pre-Bleed) and post-treatment bleed (Post-Bleed).
To determine whether the phenotypic changes shown above correlated with a decrease in GCGR mRNA, treated animals were evaluated for levels of target mRNA in liver by real time PCR according to methods described herein. Tables 35 to 41 show results from direct comparisons of the antisense compounds targeting GCGR nucleic acid for their effect on target expression. Results are expressed as percent of saline control.

[5] = Triglyceride, cholesterol and glucose levels, pre-bleed and post-bleed (Example 4, Table 34); type: in vivo, mouse; conditions: C57/BL6 mice, single i.p. dose, 48 hours
Procedure: as §1, §2

Substance | SGLT2 mRNA in kidney, % change relative to saline ([1]; primer probe set 534) [%] | SGLT2 mRNA in kidney, % change relative to saline ([1]; primer probe set 553) [%] | also measured
370717 (antisense eT*dA*dG*d[5mC]*d[5mC]*dA*d[5mC]*d[5mC]*dA*dA*d[5mC]*eT) [compound 370717] | −84.4 | −84.3 | 
379684 (antisense eT*dG*dT*d[5mC]*dA*dG*d[5mC]*dA*dG*dG*dA*eT) [compound 379684] | −45.0 | −43.2 | 
379685 (antisense eT*dG*dA*d[5mC]*d[5mC]*dA*dG*d[5mC]*dA*dG*dG*eA) [compound 379685] | −10.3 | −20.5 | 
379686 (antisense eA*d[5mC]*d[5mC]*dA*d[5mC]*dA*dA*dG*d[5mC]*d[5mC]*dA*eA) [compound 379686] | −71.9 | −75.1 | 
379687 (antisense eG*dA*dT*dG*dT*dT*dG*d[5mC]*dT*dG*dG*e[5mC]) [compound 379687] | −47.1 | −52.1 | 
379688 (antisense e[5mC]*d[5mC]*dA*dA*dG*d[5mC]*d[5mC]*dA*d[5mC]*dT*dT*eG) [compound 379688] | −62.6 | −70.4 | 
379689 (antisense eA*dG*dA*dG*d[5mC]*dG*d[5mC]*dA*dT*dT*d[5mC]*e[5mC]) [compound 379689] | −17.5 | −30.4 | 
379690 (antisense eA*d[5mC]*dA*dG*dG*dT*dA*dG*dA*dG*dG*e[5mC]) [compound 379690] | −18.9 | −22.5 | 
379691 (antisense eA*dG*dA*dT*d[5mC]*dT*dT*dG*dG*dT*dG*eA) [compound 379691] | −35.0 | −48.6 | 
379692 (antisense eT*dG*dT*dT*d[5mC]*d[5mC]*dA*dG*d[5mC]*d[5mC]*d[5mC]*eA) [compound 379692] | −88.1 | −88.5 | 
379693 (antisense e[5mC]*dA*dT*dG*dG*dT*dG*dA*dT*dG*d[5mC]*e[5mC]) [compound 379693] | −51.6 | −59.9 | 
379694 (antisense eG*dA*d[5mC]*dG*dA*dA*dG*dG*dT*d[5mC]*dT*eG) [compound 379694] | −42.1 | −54.4 | 
379695 (antisense eG*dG*dA*d[5mC]*dA*d[5mC]*d[5mC]*dG*dT*d[5mC]*dA*eG) [compound 379695] | −52.5 | −64.1 | 
379696 (antisense e[5mC]*dA*dG*d[5mC]*dT*dT*d[5mC]*dA*dG*dG*dT*eA) [compound 379696] | −24.6 | −36.2 | 
379697 (antisense e[5mC]*dT*dG*dG*d[5mC]*dA*dT*dG*dA*d[5mC]*d[5mC]*eA) [compound 379697] | −32.0 | −46.3 | 
379698 (antisense eG*d[5mC]*dA*dG*d[5mC]*d[5mC]*d[5mC]*dA*d[5mC]*d[5mC]*dT*e[5mC]) [compound 379698] | −11.8 | −27.0 | 
379699 (antisense eG*dG*d[5mC]*dA*dT*dG*dA*dG*d[5mC]*dT*dT*e[5mC]) [compound 379699] | −83.5 | −85.8 | 
379700 (antisense e[5mC]*d[5mC]*dA*dG*d[5mC]*dA*dT*dG*dA*dG*dT*e[5mC]) [compound 379700] | −2.8 | −16.4 | 
379701 (antisense e[5mC]*d[5mC]*dA*dT*dG*dG*dT*dG*dA*dA*dG*eA) [compound 379701] | −0.3 | −11.9 | 
379702 (antisense eG*d[5mC]*dA*d[5mC]*dA*d[5mC]*dA*dG*d[5mC]*dT*dG*e[5mC]) [compound 379702] | −87.8 | −89.5 | 
379703 (antisense eG*d[5mC]*d[5mC]*dG*dG*dA*dG*dA*d[5mC]*dT*dG*eA) [compound 379703] | −44.2 | −45.9 | 
400331 (eG*e[5mC]*d[5mC]*dA*d[5mC]*dG*dT*dG*dG*dG*d[5mC]*dA*eG*e[5mC]; antisense) [compound 400331] |  |  | % Inhibition Range (PCSK9 mRNA) [2]: 30-40%; % Inhib (PCSK9 mRNA) [2]: 35%; % Inhibition of PCSK9 ([3]; 5 nM): 29%; % Inhibition of PCSK9 ([3]; 10 nM): 40%; % Inhibition of PCSK9 ([3]; 20 nM): 47%; % Inhibition of PCSK9 ([3]; 40 nM): 63%; % Inhibition of PCSK9 ([3]; 80 nM): 75%; % Inhibition of PCSK9 ([3]; 160 nM): 82%
400352 (antisense e[5mC]*eA*d[5mC]*d[5mC]*d[5mC]*dT*d[5mC]*dA*d[5mC]*d[5mC]*d[5mC]*d[5mC]*e[5mC]*eA) [compound 400352] |  |  | % Inhibition Range (PCSK9 mRNA) [2]: 20-30%; % Inhib (PCSK9 mRNA) [2]: 29%; % Inhibition of PCSK9 ([3]; 5 nM): 7%; % Inhibition of PCSK9 ([3]; 10 nM): 16%; % Inhibition of PCSK9 ([3]; 20 nM): 40%; % Inhibition of PCSK9 ([3]; 40 nM): 44%; % Inhibition of PCSK9 ([3]; 80 nM): 63%; % Inhibition of PCSK9 ([3]; 160 nM): 64%
400353 (antisense eA*e[5mC]*dA*d[5mC]*d[5mC]*d[5mC]*dT*d[5mC]*dA*d[5mC]*d[5mC]*d[5mC]*e[5mC]*e[5mC]) [compound 400353] |  |  | % Inhibition Range (PCSK9 mRNA) [2]: 10-20%; % Inhib (PCSK9 mRNA) [2]: 19%; % Inhibition of PCSK9 ([3]; 5 nM): 15%; % Inhibition of PCSK9 ([3]; 10 nM): 27%; % Inhibition of PCSK9 ([3]; 20 nM): 23%; % Inhibition of PCSK9 ([3]; 40 nM): 43%; % Inhibition of PCSK9 ([3]; 80 nM): 54%; % Inhibition of PCSK9 ([3]; 160 nM): 48%
ISIS 386626: GCGR 2-10-2 MOE gapmer with C16 conjugate group at the 2′-O position via a diamide linkage (antisense GCTTCTCCATCATA; chemistry not fully specified) |  |  | GCGR mRNA expression [4]: greatest decrease; post-bleed glucose levels [5]: decreased in a dose-dependent manner
